Experimental data reported in PubChem BioAssay (NCI).
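48-hour exposure; five concentrations; linearly interpolated endpoints. GI50 = concentration required for 50% inhibition of growth. TGI: total growth inhibition.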

tested on: HL-60(TB) leukemia; experiment: NCI anticancer screen, dose series, 48 h

Structure (SMILES)	GI50	TGI
COc1cc(/C=C/c2cc(/C=C/c3ccc(O)c(OC)c3)n(C(=O)Nc3ccc(C)cc3C)n2)ccc1O	0.262 µM	0.801 µM
C=C1C(=O)OC2/C=C(\COC(C)=O)CCC(OC(C)=O)C3=CC(OC3=O)C12 (configuration not stated)	–	> 20.3 µM
Cc1ccc2[nH]c(O)c(N=Nc3ccc(S(N)(=O)=O)cc3)c2c1	> 25 µM	> 25 µM
C/C(N=NC(=S)N(C)C)=C1\C=CC=CN1O	–	> 53 µM
Cn1c(=O)c(Cc2ccccc2F)cc2cnc(NC3CCOCC3)nc21	> 25 µM	> 25 µM
CC1(C)[C@@H](OC(N)=O)[C@H]2O[C@H]2[C@]2(C=O)[C@H]3CC[C@]4(C)[C@@H](c5ccc(=O)oc5)[C@@H](Cl)C[C@]4(O)C3=CC[C@@H]12	0.00557 µM	0.0131 µM
CCCCON(OC(=O)c1ccc2ccc3cccc4ccc1c2c34)C(C)=O	19.2 µM	44.2 µM
Cc1[nH]c2ccccc2c(=O)c1CC=C(Cl)Cl	> 100 µM	> 100 µM
C1CCC([PH+](C2CCCCC2)C2CCCCC2[PH+](C2CCCCC2)C2CCCCC2)CC1.O=C(C1[CH-]CCCC1)C1CCCC[N-]1.[Au] (configuration not stated)	0.249 µM	0.731 µM
Clc1ccc(C=Nc2ccc3c(c2)Cc2ccccc2-3)c(Cl)c1	–	> 100 µM
COc1ccc(/C=C/c2cc(OC)cc(=O)o2)cc1	–	> 100 µM
O=C(/C=C\c1ccc(NCc2ccc(C(=O)O)cc2)cc1)CCl	14.8 µM	36.7 µM
O=C1CSC(c2ccc(Cl)cc2Cl)N1c1ccc(F)cc1 (configuration not stated)	21.2 µM	45.6 µM
CC(C)C[C@H](NC(=O)/C=C/Cn1ccc2ccccc2c1=O)B(O)O	2.95 µM	> 100 µM
COc1c(CCl)cc(-c2cc(=O)c3ccccc3s2)cc1CCl	–	> 23.6 µM
COc1ccc(/C=C/C(=O)C(CC2CCC2)C(=O)/C=C/c2ccc(OC)c(OC)c2)cc1OC	1.69 µM	5.94 µM
CCn1c(SCc2ccc(C)cc2)nnc1-c1nn(-c2ccc(Cl)cc2Cl)c(-c2ccc(Cl)cc2)c1C	1.6 µM	5.47 µM
CN(CCC#N)c1ccc(/C=C(\C#N)c2ccc(Br)cc2)cc1	4.43 µM	> 100 µM

tested on: UACC-62 melanoma; experiment: NCI anticancer screen, dose series, 48 h

Structure (SMILES)	GI50	TGI
Nc1ccc(-c2nc3ccc(Cc4ccc5nc(-c6ccc(N)cc6)[nH]c5c4)cc3[nH]2)cc1	3.59 µM	17.8 µM
O=S(=O)(Nc1cc(Sc2cccc3cccnc23)c(O)c2ccccc12)c1ccccc1	1.49 µM	4.33 µM
CN(C)C(=O)[C@H](O)[C@H](Cc1ccccc1)NC(=O)c1cc2cc(Cl)ccc2[nH]1	13.5 µM	32.7 µM
O=C(O)C1C(Br)(c2ccccc2)C1(Br)c1ccccc1 (configuration not stated)	–	64.3 µM
CCSc1nc(SCC)c2cn[nH]c2n1	25.6 µM	92.7 µM
ClCC[N+]12CC[N+](CCCl)(CC1)C2	–	> 100 µM
COc1ccc(CCN2COc3c([C@@H](C)CCC=C(C)C)ccc(C)c3C2)cc1OC	3.48 µM	14.6 µM
COc1cc(C(=O)c2cc(C)c3[nH]c4ccc(C)cc4c3c2C)cc(OC)c1OC	< 0.01 µM	> 100 µM
COc1cc(/C=C/c2cc(/C=C/c3ccc(O)c(OC)c3)n(C(=O)Nc3ccc(C)cc3C)n2)ccc1O	0.412 µM	1.65 µM
C=C1C(=O)OC2/C=C(\COC(C)=O)CCC(OC(C)=O)C3=CC(OC3=O)C12 (configuration not stated)	–	17.6 µM
Cc1ccc2[nH]c(O)c(N=Nc3ccc(S(N)(=O)=O)cc3)c2c1	> 23.7 µM	> 25 µM
C/C(N=NC(=S)N(C)C)=C1\C=CC=CN1O	–	> 93 µM
Cn1c(=O)c(Cc2ccccc2F)cc2cnc(NC3CCOCC3)nc21	> 25 µM	> 25 µM
CC1(C)[C@@H](OC(N)=O)[C@H]2O[C@H]2[C@]2(C=O)[C@H]3CC[C@]4(C)[C@@H](c5ccc(=O)oc5)[C@@H](Cl)C[C@]4(O)C3=CC[C@@H]12	0.00614 µM	0.0172 µM
CCCCON(OC(=O)c1ccc2ccc3cccc4ccc1c2c34)C(C)=O	21.5 µM	47.2 µM
Cc1[nH]c2ccccc2c(=O)c1CC=C(Cl)Cl	34.5 µM	> 100 µM
C1CCC([PH+](C2CCCCC2)C2CCCCC2[PH+](C2CCCCC2)C2CCCCC2)CC1.O=C(C1[CH-]CCCC1)C1CCCC[N-]1.[Au] (configuration not stated)	0.226 µM	0.835 µM
Clc1ccc(C=Nc2ccc3c(c2)Cc2ccccc2-3)c(Cl)c1	–	> 100 µM
COc1ccc(/C=C/c2cc(OC)cc(=O)o2)cc1	–	> 100 µM
O=C1CSC(c2ccc(Cl)cc2Cl)N1c1ccc(F)cc1 (configuration not stated)	16.2 µM	30.5 µM
CC(C)C[C@H](NC(=O)/C=C/Cn1ccc2ccccc2c1=O)B(O)O	3.35 µM	14.9 µM
COc1cccc2c(=O)c3c(sc12)c(N1CCNCC1)nc1ccccc13	1.73 µM	3.19 µM
COc1c(CCl)cc(-c2cc(=O)c3ccccc3s2)cc1CCl	–	> 100 µM
CCn1c(SCc2ccc(C)cc2)nnc1-c1nn(-c2ccc(Cl)cc2Cl)c(-c2ccc(Cl)cc2)c1C	2.02 µM	10.6 µM

tested on: HOP-62 NSCLC; experiment: NCI anticancer screen, dose series, 48 h

Structure (SMILES)	GI50	TGI
Nc1ccc(-c2nc3ccc(Cc4ccc5nc(-c6ccc(N)cc6)[nH]c5c4)cc3[nH]2)cc1	6.53 µM	35 µM
CC(CO)(CO)NCCCCn1ccc2c1C(=O)c1c(c(O)c3ccccc3c1O)C2=O	14 µM	28.9 µM
O=S(=O)(Nc1cc(Sc2cccc3cccnc23)c(O)c2ccccc12)c1ccccc1	1.01 µM	25.4 µM
CN(C)C(=O)[C@H](O)[C@H](Cc1ccccc1)NC(=O)c1cc2cc(Cl)ccc2[nH]1	22.6 µM	66.6 µM
CC(C)(C[C@H]1CN(S(=O)(=O)c2cccc(C(F)(F)F)c2)c2cc(-c3cc(F)cc(OC(F)F)c3)ccc2O1)C(=O)O	6.65 µM	23.8 µM
O=C(O)C1C(Br)(c2ccccc2)C1(Br)c1ccccc1 (configuration not stated)	–	> 100 µM
CCSc1nc(SCC)c2cn[nH]c2n1	18.6 µM	> 100 µM
ClCC[N+]12CC[N+](CCCl)(CC1)C2	–	> 100 µM
COc1ccc(CCN2COc3c([C@@H](C)CCC=C(C)C)ccc(C)c3C2)cc1OC	1.86 µM	3.62 µM
COc1cc(C(=O)c2cc(C)c3[nH]c4ccc(C)cc4c3c2C)cc(OC)c1OC	< 0.01 µM	> 100 µM
COc1cc(/C=C/c2cc(/C=C/c3ccc(O)c(OC)c3)n(C(=O)Nc3ccc(C)cc3C)n2)ccc1O	0.442 µM	1.54 µM
C=C1C(=O)OC2/C=C(\COC(C)=O)CCC(OC(C)=O)C3=CC(OC3=O)C12 (configuration not stated)	–	38.8 µM
Cc1ccc2[nH]c(O)c(N=Nc3ccc(S(N)(=O)=O)cc3)c2c1	11.5 µM	> 25 µM
C/C(N=NC(=S)N(C)C)=C1\C=CC=CN1O	–	> 47.3 µM
Cn1c(=O)c(Cc2ccccc2F)cc2cnc(NC3CCOCC3)nc21	> 25 µM	> 25 µM
CC1(C)[C@@H](OC(N)=O)[C@H]2O[C@H]2[C@]2(C=O)[C@H]3CC[C@]4(C)[C@@H](c5ccc(=O)oc5)[C@@H](Cl)C[C@]4(O)C3=CC[C@@H]12	0.00399 µM	0.00785 µM
CCCCON(OC(=O)c1ccc2ccc3cccc4ccc1c2c34)C(C)=O	24 µM	60.1 µM
Cc1[nH]c2ccccc2c(=O)c1CC=C(Cl)Cl	24.1 µM	64.5 µM
C1CCC([PH+](C2CCCCC2)C2CCCCC2[PH+](C2CCCCC2)C2CCCCC2)CC1.O=C(C1[CH-]CCCC1)C1CCCC[N-]1.[Au] (configuration not stated)	0.323 µM	2.96 µM
Clc1ccc(C=Nc2ccc3c(c2)Cc2ccccc2-3)c(Cl)c1	–	> 100 µM
COc1ccc(/C=C/c2cc(OC)cc(=O)o2)cc1	–	> 100 µM
O=C(/C=C\c1ccc(NCc2ccc(C(=O)O)cc2)cc1)CCl	15.5 µM	29.6 µM
O=C1CSC(c2ccc(Cl)cc2Cl)N1c1ccc(F)cc1 (configuration not stated)	18 µM	32.3 µM
CC(C)C[C@H](NC(=O)/C=C/Cn1ccc2ccccc2c1=O)B(O)O	4.9 µM	25.9 µM
COc1cccc2c(=O)c3c(sc12)c(N1CCNCC1)nc1ccccc13	1.87 µM	4.3 µM
COc1c(CCl)cc(-c2cc(=O)c3ccccc3s2)cc1CCl	–	32.6 µM
